Data taken from paper PMC3652012 (Neuropharmacology, 2012).
Like-named read-outs stand apart in the source and are kept apart here.

Assays:
[1] = biological target: α1(Q240W)β3γ2 GABAA receptors (Rattus norvegicus, UniProt P18508+P62813+P63079, Q268W); test: Whole-cell patch clamp, point-mutated receptor; assay type: cell-based; settings: compared to wild-type α1β3γ2
[2] = biological target: α1β3(Y442W)γ2 GABAA receptors (Rattus norvegicus, UniProt P18508+P62813+P63079, Y467W); assay type: cell-based; settings: compared to wild-type α1β3γ2
Chain of α1β3(Y442W)γ2 GABAA receptors (P62813 28-455): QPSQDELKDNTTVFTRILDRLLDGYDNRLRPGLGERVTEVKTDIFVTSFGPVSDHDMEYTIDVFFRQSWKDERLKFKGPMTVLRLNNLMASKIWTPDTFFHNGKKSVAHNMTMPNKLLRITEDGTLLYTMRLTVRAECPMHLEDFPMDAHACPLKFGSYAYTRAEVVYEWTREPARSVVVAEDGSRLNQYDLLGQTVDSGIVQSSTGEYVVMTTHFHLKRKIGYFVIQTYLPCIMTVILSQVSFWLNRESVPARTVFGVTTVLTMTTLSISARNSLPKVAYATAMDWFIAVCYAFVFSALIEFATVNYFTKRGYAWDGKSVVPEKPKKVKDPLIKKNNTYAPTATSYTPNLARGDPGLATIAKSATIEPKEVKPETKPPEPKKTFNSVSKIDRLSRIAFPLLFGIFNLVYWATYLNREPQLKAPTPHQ
Chain of α1β3(Y442W)γ2 GABAA receptors (P63079 26-473 Y467W): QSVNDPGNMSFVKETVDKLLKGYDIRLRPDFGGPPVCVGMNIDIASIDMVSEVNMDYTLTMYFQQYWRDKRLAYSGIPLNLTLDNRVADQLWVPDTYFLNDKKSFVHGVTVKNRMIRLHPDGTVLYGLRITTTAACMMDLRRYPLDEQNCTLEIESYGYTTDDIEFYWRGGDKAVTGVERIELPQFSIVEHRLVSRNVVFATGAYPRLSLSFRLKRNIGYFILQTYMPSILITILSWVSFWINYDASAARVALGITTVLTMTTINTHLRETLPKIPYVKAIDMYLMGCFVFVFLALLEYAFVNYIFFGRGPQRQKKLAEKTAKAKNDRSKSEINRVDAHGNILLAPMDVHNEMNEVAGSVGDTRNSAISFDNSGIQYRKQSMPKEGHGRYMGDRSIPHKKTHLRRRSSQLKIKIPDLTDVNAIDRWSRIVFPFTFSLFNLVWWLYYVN
Chain of α1β3(Y442W)γ2 GABAA receptors (P18508 39-466): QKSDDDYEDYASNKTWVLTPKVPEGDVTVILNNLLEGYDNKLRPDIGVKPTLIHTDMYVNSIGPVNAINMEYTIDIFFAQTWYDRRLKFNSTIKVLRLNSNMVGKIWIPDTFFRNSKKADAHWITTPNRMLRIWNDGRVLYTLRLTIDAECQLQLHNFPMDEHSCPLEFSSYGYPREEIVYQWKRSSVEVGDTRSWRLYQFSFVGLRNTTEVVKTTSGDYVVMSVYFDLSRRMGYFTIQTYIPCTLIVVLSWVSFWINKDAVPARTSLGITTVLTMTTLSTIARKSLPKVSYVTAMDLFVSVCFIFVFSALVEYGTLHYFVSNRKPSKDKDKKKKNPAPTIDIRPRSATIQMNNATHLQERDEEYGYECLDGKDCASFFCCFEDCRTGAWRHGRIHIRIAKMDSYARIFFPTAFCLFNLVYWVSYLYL

GABAA receptors = test: Direct activation of GABAA receptors in the absence of GABA; assay type: cell-based
[3] = biological target: α1β3(T256F)γ2 GABAA receptors (Rattus norvegicus, UniProt P18508+P62813+P63079, T281F); test: Whole-cell patch clamp, point-mutated receptor; assay type: cell-based; settings: compared to wild-type α1β3γ2
Chain of α1β3(T256F)γ2 GABAA receptors (P62813 28-455, stated change not applied): as the sequence (P62813 28-455) above
Chain of α1β3(T256F)γ2 GABAA receptors (P63079 26-473 T281F): as the sequence (P63079 26-473 Y467W) above, with T256F, W442Y counted along it
Chain of α1β3(T256F)γ2 GABAA receptors (P18508 39-466): as the sequence (P18508 39-466) above

[4] = biological target: α1β3(M286W)γ2 GABAA receptors (Rattus norvegicus, UniProt P18508+P62813+P63079, M311W); test: Whole-cell patch clamp, point-mutated receptor; assay type: cell-based; settings: compared to wild-type α1β3γ2
Chain of α1β3(M286W)γ2 GABAA receptors (P62813 28-455): as the sequence (P62813 28-455) above
Chain of α1β3(M286W)γ2 GABAA receptors (P63079 26-473 M311W): as the sequence (P63079 26-473 Y467W) above, with M286W, W442Y counted along it
Chain of α1β3(M286W)γ2 GABAA receptors (P18508 39-466): as the sequence (P18508 39-466) above

[5] = biological target: T1, recombinant α1β3γ2 GABAA receptors (Rattus norvegicus, UniProt P18508+P62813+P63079); test: Whole-cell patch clamp of transfected HEK-293T cells; settings: for effect on peak amplitude of the response to saturating GABA: 10 μM modulator with 1 mM GABA, whole-cell; for effect on peak amplitude of the response to saturating GABA / maximum enhancement of the GABA response: −50 mV; for maximum enhancement of the GABA response: co-applied 5 sec with EC5–10 GABA (1 μM), response to GABA alone = 100%
T1 sequence (P62813 28-455): as the sequence (P62813 28-455) above
T1 sequence (P63079 26-473): as the sequence (P63079 26-473 Y467W) above, with W442Y counted along it
T1 sequence (P18508 39-466): as the sequence (P18508 39-466) above

[6] = tested on: recombinant GABAA receptors: six α subtypes with β3 and γ2, three β subtypes with α1 and γ2, three γ subtypes with α1 and β3; test: Whole-cell patch clamp, receptors with varying α, β or γ subtype; settings: 10 μM co-applied with EC5–10 GABA for each isoform
[7] = biological target: T1, recombinant α1β3γ2 GABAA receptors; test: Outside-out macropatch recording, deactivation after brief GABA application; settings: for increase of weighted mean deactivation rate / weighted mean deactivation rate in presence of modulator: 10 μM modulator co-applied with 1 mM GABA for 5 msec, −70 mV
[8] = biological target: recombinant α4β3δ GABAA receptors (Rattus norvegicus, UniProt P18506+P28471+P63079); test: Whole-cell patch clamp of transfected HEK-293T cells; settings: 10 μM co-applied with EC5–10 GABA
Chain of recombinant α4β3δ GABAA receptors (P28471 36-552): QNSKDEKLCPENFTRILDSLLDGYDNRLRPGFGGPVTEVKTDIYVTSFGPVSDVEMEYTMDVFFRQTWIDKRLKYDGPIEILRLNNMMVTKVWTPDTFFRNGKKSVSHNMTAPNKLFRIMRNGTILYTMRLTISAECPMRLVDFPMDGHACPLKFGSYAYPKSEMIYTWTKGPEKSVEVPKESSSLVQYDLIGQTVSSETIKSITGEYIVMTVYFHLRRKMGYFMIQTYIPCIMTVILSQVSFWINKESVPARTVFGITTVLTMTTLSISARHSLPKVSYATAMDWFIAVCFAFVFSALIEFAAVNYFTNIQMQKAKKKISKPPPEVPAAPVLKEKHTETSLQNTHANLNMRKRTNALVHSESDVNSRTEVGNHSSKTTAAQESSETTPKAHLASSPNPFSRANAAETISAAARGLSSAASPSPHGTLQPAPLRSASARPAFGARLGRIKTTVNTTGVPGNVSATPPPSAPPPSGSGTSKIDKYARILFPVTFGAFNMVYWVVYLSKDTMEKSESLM
Chain of recombinant α4β3δ GABAA receptors (P63079 26-473): as the sequence (P63079 26-473 Y467W) above, with W442Y counted along it
Chain of recombinant α4β3δ GABAA receptors (P18506 17-449 limits assumed): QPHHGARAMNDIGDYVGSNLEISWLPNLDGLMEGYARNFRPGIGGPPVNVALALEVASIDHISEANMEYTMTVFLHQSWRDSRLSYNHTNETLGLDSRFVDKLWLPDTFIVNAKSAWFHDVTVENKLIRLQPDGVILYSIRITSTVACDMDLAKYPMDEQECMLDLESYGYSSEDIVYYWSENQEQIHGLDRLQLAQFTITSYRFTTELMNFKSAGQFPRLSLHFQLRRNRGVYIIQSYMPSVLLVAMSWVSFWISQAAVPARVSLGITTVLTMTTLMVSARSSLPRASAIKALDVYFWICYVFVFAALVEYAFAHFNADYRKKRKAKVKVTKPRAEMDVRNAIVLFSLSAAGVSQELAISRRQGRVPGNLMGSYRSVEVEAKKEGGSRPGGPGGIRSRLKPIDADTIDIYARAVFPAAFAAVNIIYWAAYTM

[9] = biological target: α1(T260F)β3γ2 GABAA receptors (Rattus norvegicus, UniProt P18508+P62813+P63079, T287F); test: Whole-cell patch clamp, point-mutated receptor; assay type: cell-based; settings: compared to wild-type α1β3γ2
Chain of α1(T260F)β3γ2 GABAA receptors (P62813 28-455 T287F): as the sequence (P62813 28-455) above, with T260F counted along it
Chain of α1(T260F)β3γ2 GABAA receptors (P63079 26-473, stated change not applied): as the sequence (P63079 26-473 Y467W) above, with W442Y counted along it
Chain of α1(T260F)β3γ2 GABAA receptors (P18508 39-466): as the sequence (P18508 39-466) above

[10] = tested on: extra-synaptic GABAA receptors in dentate granule neurons; assay type: cell-based, rat; settings: CNQX, D-APV, TTX present
[11] = tested on: mIPSCs in dentate granule neurons; assay type: cell-based, rat; settings: 1 μM TTX
[12] = biological target: recombinant α1β3δ GABAA receptors (Rattus norvegicus, UniProt P18506+P62813+P63079); test: Whole-cell patch clamp of transfected HEK-293T cells; settings: for effect on peak response to saturating GABA: 10 μM modulator with 1 mM GABA, whole-cell, −50 mV
Chain of recombinant α1β3δ GABAA receptors (P62813 28-455): as the sequence (P62813 28-455) above
Chain of recombinant α1β3δ GABAA receptors (P63079 26-473): as the sequence (P63079 26-473 Y467W) above, with W442Y counted along it
Chain of recombinant α1β3δ GABAA receptors (P18506 17-449 limits assumed): as the sequence (P18506 17-449 limits assumed) above

[13] = biological target: α1(Y410W)β3γ2 GABAA receptors (Rattus norvegicus, UniProt P18508+P62813+P63079, Y437W); test: Whole-cell patch clamp, point-mutated receptor; assay type: cell-based; settings: compared to wild-type α1β3γ2
Chain of α1(Y410W)β3γ2 GABAA receptors (P62813 28-455 Y437W): as the sequence (P62813 28-455) above, with Y410W counted along it
Chain of α1(Y410W)β3γ2 GABAA receptors (P63079 26-473): as the sequence (P63079 26-473 Y467W) above, with W442Y counted along it
Chain of α1(Y410W)β3γ2 GABAA receptors (P18508 39-466): as the sequence (P18508 39-466) above

[14] = biological target: recombinant α1β3 GABAA receptors (Rattus norvegicus, UniProt P62813+P63079); test: Whole-cell patch clamp of transfected HEK-293T cells; settings: 10 μM co-applied with EC5–10 GABA
Chain of recombinant α1β3 GABAA receptors (P62813 28-455): as the sequence (P62813 28-455) above
Chain of recombinant α1β3 GABAA receptors (P63079 26-473): as the sequence (P63079 26-473 Y467W) above, with W442Y counted along it

[15] = tested on: GABAA receptor-mediated IPSCs in dentate granule cells; test: Whole-cell recording of evoked monosynaptic IPSCs in hippocampal slices; assay type: cell-based, rat; settings: n=5; for 50% decay time of evoked IPSC: relative to control before drug; for amplitude of evoked IPSC: relative to control, p>0.05
[16] = biological target: α1(S269I)β3γ2 GABAA receptors (Rattus norvegicus, UniProt P18508+P62813+P63079, S296I); test: Whole-cell patch clamp, point-mutated receptor; assay type: cell-based; settings: compared to wild-type α1β3γ2
Chain of α1(S269I)β3γ2 GABAA receptors (P62813 28-455 S296I): as the sequence (P62813 28-455) above, with S269I counted along it
Chain of α1(S269I)β3γ2 GABAA receptors (P63079 26-473): as the sequence (P63079 26-473 Y467W) above, with W442Y counted along it
Chain of α1(S269I)β3γ2 GABAA receptors (P18508 39-466): as the sequence (P18508 39-466) above

[17] = magnolol 30 μM (Fig 1: 30–60 μM), n=7
[18] = honokiol (Fig 1: 30–60 μM), n=6

Chain of α1(Q240W)β3γ2 GABAA receptors (P62813 28-455 Q268W): as the sequence (P62813 28-455) above, with Q241W counted along it
Chain of α1(Q240W)β3γ2 GABAA receptors (P63079 26-473): as the sequence (P63079 26-473 Y467W) above, with W442Y counted along it
Chain of α1(Q240W)β3γ2 GABAA receptors (P18508 39-466): as the sequence (P18508 39-466) above

| SMILES | impact of mutation on modulation [1] | impact of mutation on potentiation [2] | concentration at which agonist activity (direct activation) was observed (GABAA receptors) | impact of mutation on modulation [3] | impact of mutation on potentiation [4] | EC50 [5] [nM] | effect on peak amplitude of the response to saturating GABA [5] | maximum enhancement of the GABA response [5] [%] | potentiation across receptor isoforms (α, β, γ subtype selectivity) [6] | increase of weighted mean deactivation rate [7] [%] | weighted mean deactivation rate in presence of modulator [7] [ms] | enhancement of the GABA response [8] | impact of mutation on modulation [9] | EC50 [12] [nM] | effect on peak response to saturating GABA [12] | impact of mutation on potentiation [13] | response (potentiation) of receptors lacking γ or δ [14] | impact of mutation on potentiation [16] | also measured |
| --- | --- | --- | --- | --- | --- | --- | --- | --- | --- | --- | --- | --- | --- | --- | --- | --- | --- | --- | --- |
| C=CCc1ccc(O)c(-c2cc(CC=C)ccc2O)c1 [magnolol, 5,5′-diallyl-2,2′-dihydroxybiphenyl] | no impact | retained wild-type potentiation | above 10 μM | neither of these mutations had any impact | retained wild-type potentiation | 1240 ± 210 | no effect | 467.6±24.6 | potentiated to a similar degree, with no apparent selectivity among the subtypes | 171.8 | 104.3 ± 16.2 | large enhancement, similar to that of α1β3δ | neither of these mutations had any impact | 3400 ± 700 | nearly doubled | retained wild-type potentiation | responded to a level comparable to the γ-containing receptors | retained wild-type potentiation | % area of the slower deactivation component in presence of modulator ([7]; 10 μM co-applied with 1 mM GABA for 5 msec, GABA alone 31.5±5.0): 41.8±8.1%; slow τ of deactivation in presence of modulator ([7]; 10 μM co-applied with 1 mM GABA for 5 msec, GABA alone 161.1±29.6): 228.4 ± 41.3 ms; increase of tonic GABAergic current [10, 17]: 402.5±61.7%; mIPSC amplitude ([11]; magnolol 30 μM (Fig 1: 30–60 μM)): not affected; mIPSC frequency [11, 17]: 476.2±108.5%; 50% decay time of evoked IPSC ([15]; magnolol 30 μM bath applied): 267.7±7.9%; amplitude of evoked IPSC ([15]; magnolol 30 μM bath applied): 105.7±11.2% |
| C=CCc1ccc(O)c(-c2ccc(O)c(CC=C)c2)c1 [honokiol, 3,5′-diallyl-4,2′-dihydroxybiphenyl] | no impact | retained wild-type potentiation | above 10 μM | neither of these mutations had any impact | retained wild-type potentiation | 1170 ± 200 | no effect | 483.4±64.4 | potentiated to a similar degree, with no apparent selectivity among the subtypes | 147.2 | 113.5 ± 21.0 | large enhancement, similar to that of α1β3δ | neither of these mutations had any impact | 3800 ± 410 | nearly doubled | retained wild-type potentiation | responded to a level comparable to the γ-containing receptors | retained wild-type potentiation | enhancement of tonic GABAergic current [10, 18]: 351.2±79.0%; mIPSC amplitude ([11]; honokiol (Fig 1: 30–60 μM)): not affected; mIPSC frequency [11, 18]: 378.9±46.8%; 50% decay time of evoked IPSC ([15]; honokiol 60 μM bath applied): 299.5±16.6%; amplitude of evoked IPSC ([15]; honokiol 60 μM bath applied): 113.3±25.0% |
